From US12227500B2, “Substituted pyrrolo[2,3-b]pyridines for suppressing toxic endoplasmic reticulum stress” (THE TRUSTEES OF COLUMBIA UNIVERSITY IN THE CITY OF NEW YORK, priority 2018, dated 2025)

Assays:
Test in all cases: Radiolabeled ATP kinase assay, panel of 371 kinases (Table S6)
Assay type in all cases: biochemical
[1] = target: T1, panel of 371 human kinases (Homo sapiens, UniProt O60674); settings: JAK2; 0.1 μM; 10 μM ATP; read-out: % Enzyme Activity (relative to DMSO controls)
T1 construct: purchased Reaction Biology Corp
Description: (§1) ; FIG. 38C). […]. Further targeted analyses, such as genetic knock-down or knock-out, may be warranted to parse the role of these additional kinases in our model of neurodegeneration.

[2] = target: T2, panel of 371 human kinases (Homo sapiens, UniProt O75582); settings: MSK1/RPS6KA5; 0.1 μM; 10 μM ATP; read-out: % Enzyme Activity (relative to DMSO controls)
T2 construct: purchased Reaction Biology Corp
Description: as §1

[3] = target: T3, panel of 371 human kinases (Homo sapiens, UniProt P08631); settings: HCK; 0.1 μM; 10 μM ATP; read-out: % Enzyme Activity (relative to DMSO controls)
T3 construct: purchased Reaction Biology Corp
Description: as §1

[4] = target: T4, panel of 371 human kinases (Homo sapiens, UniProt P11309); settings: PIM1; 0.1 μM; 10 μM ATP; read-out: % Enzyme Activity (relative to DMSO controls)
T4 construct: purchased Reaction Biology Corp
Description: as §1

[5] = target: T5, panel of 371 human kinases (Homo sapiens, UniProt P14616); settings: IRR/INSRR; 0.1 μM; 10 μM ATP; read-out: % Enzyme Activity (relative to DMSO controls)
T5 construct: purchased Reaction Biology Corp
Description: as §1

[6] = target: T6, panel of 371 human kinases (Homo sapiens, UniProt P15735); settings: PHKg2; 0.1 μM; 10 μM ATP; read-out: % Enzyme Activity (relative to DMSO controls)
T6 construct: purchased Reaction Biology Corp
Description: as §1

[7] = target: T7, panel of 371 human kinases (Homo sapiens, UniProt P16234); settings: PDGFRa; 0.1 μM; 10 μM ATP; read-out: % Enzyme Activity (relative to DMSO controls)
T7 construct: purchased Reaction Biology Corp
Description: as §1

[8] = target: T8, panel of 371 human kinases (Homo sapiens, UniProt P36896); settings: ALK4/ACVR1B; 0.1 μM; 10 μM ATP; read-out: % Enzyme Activity (relative to DMSO controls)
T8 construct: purchased Reaction Biology Corp
Description: as §1

[9] = target: T9, panel of 371 human kinases (Homo sapiens, UniProt P41279); settings: COT1/MAP3K8; 0.1 μM; 10 μM ATP; read-out: % Enzyme Activity (relative to DMSO controls)
T9 construct: purchased Reaction Biology Corp
Description: as §1

[10] = target: T10, panel of 371 human kinases (Homo sapiens, UniProt P41743); settings: PKCiota; 0.1 μM; 10 μM ATP; read-out: % Enzyme Activity (relative to DMSO controls)
T10 construct: purchased Reaction Biology Corp
Description: as §1

[11] = target: T11, panel of 371 human kinases (Homo sapiens, UniProt P49759); settings: CLK1; 0.1 μM; 10 μM ATP; read-out: % Enzyme Activity (relative to DMSO controls)
T11 construct: purchased Reaction Biology Corp
Description: as §1

[12] = target: T12, panel of 371 human kinases (Homo sapiens, UniProt P51817); settings: PRKX; 0.1 μM; 10 μM ATP; read-out: % Enzyme Activity (relative to DMSO controls)
T12 construct: purchased Reaction Biology Corp
Description: as §1

[13] = target: T13, panel of 371 human kinases (Homo sapiens, UniProt P54753); settings: EPHB3; 0.1 μM; 10 μM ATP; read-out: % Enzyme Activity (relative to DMSO controls)
T13 construct: purchased Reaction Biology Corp
Description: as §1

[14] = target: T14, panel of 371 human kinases (Homo sapiens, UniProt Q04759); settings: PKCtheta; 0.1 μM; 10 μM ATP; read-out: % Enzyme Activity (relative to DMSO controls)
T14 construct: purchased Reaction Biology Corp
Description: as §1

[15] = target: T15, panel of 371 human kinases (Homo sapiens, UniProt Q06418); settings: TYRO3/SKY; 0.1 μM; 10 μM ATP; read-out: % Enzyme Activity (relative to DMSO controls)
T15 construct: purchased Reaction Biology Corp
Description: as §1

[16] = target: T16, panel of 371 human kinases (Homo sapiens, UniProt Q13163); settings: MEK5; 0.1 μM; 10 μM ATP; read-out: % Enzyme Activity (relative to DMSO controls)
T16 construct: purchased Reaction Biology Corp
Description: as §1

[17] = target: T17, panel of 371 human kinases (Homo sapiens, UniProt Q13557); settings: CAMK2d; 0.1 μM; 10 μM ATP; read-out: % Enzyme Activity (relative to DMSO controls)
T17 construct: purchased Reaction Biology Corp
Description: as §1

[18] = target: T18, panel of 371 human kinases (Homo sapiens, UniProt Q16584); settings: for remaining activity at 0.1 µM: MLK3/MAP3K11, 10 μM ATP, read-out: % Enzyme Activity (relative to DMSO controls)
T18 construct: purchased Reaction Biology Corp
Description: as §1

[19] = target: T19, panel of 371 human kinases (Homo sapiens, UniProt Q92630); settings: DYRK2; 0.1 μM; 10 μM ATP; read-out: % Enzyme Activity (relative to DMSO controls)
T19 construct: purchased Reaction Biology Corp
Description: as §1

[20] = target: T20, panel of 371 human kinases (Homo sapiens, UniProt Q96BR1); settings: SGK3/SGKL; 0.1 μM; 10 μM ATP; read-out: % Enzyme Activity (relative to DMSO controls)
T20 construct: purchased Reaction Biology Corp
Description: as §1

[21] = target: T21, panel of 371 human kinases (Homo sapiens, UniProt Q9BUB5); settings: MNK1; 0.1 μM; 10 μM ATP; read-out: % Enzyme Activity (relative to DMSO controls)
T21 construct: purchased Reaction Biology Corp
Description: as §1

[22] = target: T22, panel of 371 human kinases (Homo sapiens, UniProt Q9P286); settings: PAK5; 0.1 μM; 10 μM ATP; read-out: % Enzyme Activity (relative to DMSO controls)
T22 construct: purchased Reaction Biology Corp
Description: as §1

[23] = target: T23, panel of 371 human kinases (Homo sapiens, UniProt Q9UM73); settings: ALK; 0.1 μM; 10 μM ATP; read-out: % Enzyme Activity (relative to DMSO controls)
T23 construct: purchased Reaction Biology Corp
Description: as §1

[24] = target: T24, panel of 371 human kinases (Homo sapiens, UniProt Q9UPE1); settings: MSSK1/STK23; 0.1 μM; 10 μM ATP; read-out: % Enzyme Activity (relative to DMSO controls)
T24 construct: purchased Reaction Biology Corp
Description: as §1

T18 sequence (Q16584 whole entry): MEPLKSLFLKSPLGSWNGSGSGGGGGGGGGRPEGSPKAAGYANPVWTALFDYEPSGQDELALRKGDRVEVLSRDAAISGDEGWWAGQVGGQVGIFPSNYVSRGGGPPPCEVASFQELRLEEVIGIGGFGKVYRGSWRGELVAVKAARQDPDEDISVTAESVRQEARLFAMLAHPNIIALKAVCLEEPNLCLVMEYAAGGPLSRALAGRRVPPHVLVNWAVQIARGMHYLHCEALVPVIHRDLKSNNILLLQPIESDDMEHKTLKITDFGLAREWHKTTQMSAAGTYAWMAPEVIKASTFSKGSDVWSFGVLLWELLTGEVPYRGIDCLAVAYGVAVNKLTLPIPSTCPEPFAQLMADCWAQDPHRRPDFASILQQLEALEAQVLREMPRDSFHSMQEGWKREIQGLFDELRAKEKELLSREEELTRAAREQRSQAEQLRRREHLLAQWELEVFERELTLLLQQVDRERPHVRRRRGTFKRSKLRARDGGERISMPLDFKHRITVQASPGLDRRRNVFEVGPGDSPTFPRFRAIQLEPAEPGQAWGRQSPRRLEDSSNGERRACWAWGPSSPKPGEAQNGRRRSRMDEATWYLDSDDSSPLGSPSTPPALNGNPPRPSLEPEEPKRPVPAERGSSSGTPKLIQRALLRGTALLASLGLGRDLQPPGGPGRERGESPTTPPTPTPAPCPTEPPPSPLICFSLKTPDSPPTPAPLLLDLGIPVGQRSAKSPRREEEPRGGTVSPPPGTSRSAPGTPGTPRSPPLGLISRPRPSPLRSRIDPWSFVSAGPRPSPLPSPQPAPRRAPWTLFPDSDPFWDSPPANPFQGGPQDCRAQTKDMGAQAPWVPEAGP
T17 sequence (Q13557 whole entry): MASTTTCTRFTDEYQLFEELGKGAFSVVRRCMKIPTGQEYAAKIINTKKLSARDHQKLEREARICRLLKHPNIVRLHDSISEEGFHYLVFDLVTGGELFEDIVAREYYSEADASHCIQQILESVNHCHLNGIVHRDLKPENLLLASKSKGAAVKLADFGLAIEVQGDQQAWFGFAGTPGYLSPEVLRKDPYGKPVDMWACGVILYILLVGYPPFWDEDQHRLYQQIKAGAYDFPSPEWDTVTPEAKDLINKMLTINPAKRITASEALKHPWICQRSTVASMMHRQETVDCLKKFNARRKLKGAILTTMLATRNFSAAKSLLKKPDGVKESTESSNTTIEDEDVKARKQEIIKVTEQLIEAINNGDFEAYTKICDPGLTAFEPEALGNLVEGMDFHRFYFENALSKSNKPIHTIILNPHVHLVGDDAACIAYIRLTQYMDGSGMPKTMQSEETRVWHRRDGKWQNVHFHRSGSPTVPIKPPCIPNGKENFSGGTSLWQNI
T14 sequence (Q04759 whole entry): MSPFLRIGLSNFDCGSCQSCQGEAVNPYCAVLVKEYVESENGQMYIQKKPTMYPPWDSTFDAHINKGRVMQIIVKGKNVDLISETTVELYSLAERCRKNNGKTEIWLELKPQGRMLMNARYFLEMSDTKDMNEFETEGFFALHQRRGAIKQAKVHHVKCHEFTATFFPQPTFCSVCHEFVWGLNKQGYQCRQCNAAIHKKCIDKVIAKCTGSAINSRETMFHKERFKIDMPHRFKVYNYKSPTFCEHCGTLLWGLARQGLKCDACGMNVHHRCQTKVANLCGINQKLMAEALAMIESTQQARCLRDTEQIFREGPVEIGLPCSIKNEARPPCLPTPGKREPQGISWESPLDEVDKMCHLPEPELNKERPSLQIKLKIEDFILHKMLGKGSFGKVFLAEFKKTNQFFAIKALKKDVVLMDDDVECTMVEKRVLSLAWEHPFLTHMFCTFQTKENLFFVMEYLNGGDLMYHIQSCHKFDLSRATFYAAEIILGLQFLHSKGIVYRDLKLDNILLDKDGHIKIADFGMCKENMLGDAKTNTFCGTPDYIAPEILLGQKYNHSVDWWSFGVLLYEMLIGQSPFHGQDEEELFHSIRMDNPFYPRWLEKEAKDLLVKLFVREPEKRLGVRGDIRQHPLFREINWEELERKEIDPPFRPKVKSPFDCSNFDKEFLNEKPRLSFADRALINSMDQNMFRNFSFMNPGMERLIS
T5 sequence (P14616 27-1297): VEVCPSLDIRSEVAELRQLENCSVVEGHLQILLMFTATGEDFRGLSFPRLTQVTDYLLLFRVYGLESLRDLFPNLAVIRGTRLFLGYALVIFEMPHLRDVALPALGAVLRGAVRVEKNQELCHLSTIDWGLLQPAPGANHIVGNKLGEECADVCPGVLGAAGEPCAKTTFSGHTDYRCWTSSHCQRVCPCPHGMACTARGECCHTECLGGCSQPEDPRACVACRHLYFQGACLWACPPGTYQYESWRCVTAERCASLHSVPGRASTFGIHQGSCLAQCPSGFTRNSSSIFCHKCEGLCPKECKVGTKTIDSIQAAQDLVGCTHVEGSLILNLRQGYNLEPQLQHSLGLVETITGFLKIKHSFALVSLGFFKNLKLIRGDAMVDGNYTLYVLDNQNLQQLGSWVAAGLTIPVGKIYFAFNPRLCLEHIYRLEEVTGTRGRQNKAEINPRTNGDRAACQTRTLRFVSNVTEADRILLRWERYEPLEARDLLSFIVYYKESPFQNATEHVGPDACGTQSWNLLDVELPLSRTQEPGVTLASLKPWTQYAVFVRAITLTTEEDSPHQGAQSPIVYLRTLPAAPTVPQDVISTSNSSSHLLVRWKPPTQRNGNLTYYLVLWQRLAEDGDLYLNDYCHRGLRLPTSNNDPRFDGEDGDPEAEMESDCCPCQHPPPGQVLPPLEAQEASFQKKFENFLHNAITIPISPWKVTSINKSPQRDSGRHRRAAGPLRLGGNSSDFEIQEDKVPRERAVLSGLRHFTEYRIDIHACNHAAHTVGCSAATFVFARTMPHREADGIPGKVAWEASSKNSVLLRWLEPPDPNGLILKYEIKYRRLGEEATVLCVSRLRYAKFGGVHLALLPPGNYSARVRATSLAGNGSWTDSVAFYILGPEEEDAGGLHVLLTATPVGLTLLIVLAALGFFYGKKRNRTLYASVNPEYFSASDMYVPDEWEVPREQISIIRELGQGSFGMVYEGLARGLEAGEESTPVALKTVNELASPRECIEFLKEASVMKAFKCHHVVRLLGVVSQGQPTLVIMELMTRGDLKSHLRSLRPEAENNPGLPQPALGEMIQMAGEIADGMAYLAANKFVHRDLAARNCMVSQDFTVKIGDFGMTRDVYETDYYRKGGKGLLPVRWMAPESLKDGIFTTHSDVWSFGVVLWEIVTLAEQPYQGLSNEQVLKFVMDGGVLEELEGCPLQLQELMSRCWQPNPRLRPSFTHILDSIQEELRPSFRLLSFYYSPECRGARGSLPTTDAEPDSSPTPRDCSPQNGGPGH
T9 sequence (P41279 whole entry): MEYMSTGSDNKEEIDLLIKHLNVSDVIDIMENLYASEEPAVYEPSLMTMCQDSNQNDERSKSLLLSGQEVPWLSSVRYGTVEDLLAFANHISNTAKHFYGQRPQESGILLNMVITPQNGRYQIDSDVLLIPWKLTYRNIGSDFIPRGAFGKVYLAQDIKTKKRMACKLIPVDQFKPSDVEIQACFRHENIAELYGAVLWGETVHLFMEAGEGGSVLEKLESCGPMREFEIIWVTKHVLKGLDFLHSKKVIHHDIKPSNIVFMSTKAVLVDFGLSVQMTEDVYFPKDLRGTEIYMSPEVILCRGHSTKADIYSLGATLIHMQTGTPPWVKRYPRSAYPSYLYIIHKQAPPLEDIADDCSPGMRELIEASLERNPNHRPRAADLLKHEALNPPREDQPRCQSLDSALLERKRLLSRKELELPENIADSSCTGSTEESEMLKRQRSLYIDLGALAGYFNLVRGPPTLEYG
T19 sequence (Q92630 whole entry): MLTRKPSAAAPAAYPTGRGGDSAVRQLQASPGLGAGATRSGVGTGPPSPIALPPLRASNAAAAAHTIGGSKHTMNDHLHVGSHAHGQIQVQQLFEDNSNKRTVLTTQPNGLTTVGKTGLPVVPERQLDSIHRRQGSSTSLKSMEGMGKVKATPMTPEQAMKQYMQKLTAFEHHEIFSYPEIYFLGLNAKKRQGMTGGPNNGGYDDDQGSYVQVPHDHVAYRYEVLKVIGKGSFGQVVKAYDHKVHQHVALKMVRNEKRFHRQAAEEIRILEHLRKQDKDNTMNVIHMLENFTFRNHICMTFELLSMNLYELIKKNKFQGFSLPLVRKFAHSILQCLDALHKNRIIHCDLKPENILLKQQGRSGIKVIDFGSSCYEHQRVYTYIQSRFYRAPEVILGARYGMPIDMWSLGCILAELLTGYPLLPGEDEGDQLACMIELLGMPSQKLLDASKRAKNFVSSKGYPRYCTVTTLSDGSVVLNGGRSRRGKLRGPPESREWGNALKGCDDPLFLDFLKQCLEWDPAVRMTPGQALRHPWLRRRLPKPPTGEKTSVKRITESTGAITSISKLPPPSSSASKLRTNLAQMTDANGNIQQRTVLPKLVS
T21 sequence (Q9BUB5 whole entry): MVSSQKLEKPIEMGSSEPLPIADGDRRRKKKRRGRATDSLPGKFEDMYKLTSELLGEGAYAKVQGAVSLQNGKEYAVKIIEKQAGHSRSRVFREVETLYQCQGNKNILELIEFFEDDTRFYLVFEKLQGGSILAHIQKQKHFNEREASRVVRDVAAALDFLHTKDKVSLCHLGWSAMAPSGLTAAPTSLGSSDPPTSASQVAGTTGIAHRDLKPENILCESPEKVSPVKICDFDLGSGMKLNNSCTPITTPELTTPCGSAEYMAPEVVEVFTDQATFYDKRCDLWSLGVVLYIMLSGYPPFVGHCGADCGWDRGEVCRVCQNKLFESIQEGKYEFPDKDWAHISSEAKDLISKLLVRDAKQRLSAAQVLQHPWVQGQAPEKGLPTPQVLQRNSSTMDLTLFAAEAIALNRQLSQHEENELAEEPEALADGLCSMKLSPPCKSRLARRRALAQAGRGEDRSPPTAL

Structure (SMILES): CN1CCN(Cc2ccc(-c3cnc4[nH]cc(-c5ccc6[nH]ccc6c5)c4c3)cc2)CC1 [Compound 1, 3-(1H-Indol-5-yl)-5-(4-((4-methylpiperazin-1-yl)methyl)phenyl)-1H-pyrrolo[2,3-b]pyridine, reference compound]
- remaining activity at 0.1 µM [1]: 90.2%
- remaining activity at 0.1 µM [2]: 101%
- remaining activity at 0.1 µM [3]: 110%
- remaining activity at 0.1 µM [4]: 93.2%
- remaining activity at 0.1 µM [5]: 50.1%
- remaining activity at 0.1 µM [6]: 86%
- remaining activity at 0.1 µM [7]: 86.9%
- remaining activity at 0.1 µM [8]: 100%
- remaining activity at 0.1 µM [9]: 101%
- remaining activity at 0.1 µM [10]: 100%
- remaining activity at 0.1 µM [11]: 58.8%
- remaining activity at 0.1 µM [12]: 95.5%
- remaining activity at 0.1 µM [13]: 107%
- remaining activity at 0.1 µM [14]: 90.8%
- remaining activity at 0.1 µM [15]: 86.8%
- remaining activity at 0.1 µM [16]: 97.6%
- remaining activity at 0.1 µM [17]: 97%
- remaining activity at 0.025 µM ([18]; 0.025 μM, read-out: MLK3 activity remaining): 56.4%
- remaining activity at 0.1 µM [18]: 56.4%
- remaining activity at 0.1 µM [19]: 71.7%
- remaining activity at 0.1 µM [20]: 74.3%
- remaining activity at 0.1 µM [21]: 94%
- remaining activity at 0.1 µM [22]: 113%
- remaining activity at 0.1 µM [23]: 73.8%
- remaining activity at 0.1 µM [24]: 112%

Structure (SMILES): OCCN1CCN(Cc2ccc(-c3cnc4[nH]cc(-c5cccc(Cl)c5)c4c3)cc2)CC1 [Compound 12k, 2-(4-(4-(3-(3-Chlorophenyl)-1H-pyrrolo[2,3-b]pyridin-5-yl)benzyl)piperazin-1-yl)ethan-1-ol]
- remaining activity at 0.1 µM [1]: 93%
- remaining activity at 0.1 µM [2]: 98.4%
- remaining activity at 0.1 µM [3]: 95.8%
- remaining activity at 0.1 µM [4]: 98.5%
- remaining activity at 0.1 µM [5]: 89.9%
- remaining activity at 0.1 µM [6]: 95.2%
- remaining activity at 0.1 µM [7]: 87.8%
- remaining activity at 0.1 µM [8]: 95.9%
- remaining activity at 0.1 µM [9]: 87.5%
- remaining activity at 0.1 µM [10]: 93%
- remaining activity at 0.1 µM [11]: 68.6%
- remaining activity at 0.1 µM [12]: 96.1%
- remaining activity at 0.1 µM [13]: 101%
- remaining activity at 0.1 µM [14]: 94.6%
- remaining activity at 0.1 µM [15]: 94.3%
- remaining activity at 0.1 µM [16]: 85.6%
- remaining activity at 0.1 µM [17]: 81.3%
- remaining activity at 0.1 µM [18]: 67%
- remaining activity at 0.1 µM [19]: 85.6%
- remaining activity at 0.1 µM [20]: 88.2%
- remaining activity at 0.1 µM [21]: 90.7%
- remaining activity at 0.1 µM [22]: 99%
- remaining activity at 0.1 µM [23]: 85.3%
- remaining activity at 0.1 µM [24]: 103%
